# Reference: PubChem BioAssay (NCI)
#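 GI50: concentration for 50% inhibition of growth. TGI: concentration producing complete growth inhibition.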
# Key:
# Experiment in all cases: growth of human tumour cells (NCI), 384-well format
# [1] = system: KM12 colon
# [2] = system: OVCAR-5 ovarian
# [3] = system: UACC-257 melanoma
# [4] = system: HCT-15 colon
# [5] = system: NCI-H522 lung
# [6] = system: MOLT-4 leukemia
# [7] = system: U251 glioblastoma
# [8] = system: HOP-92 NSCLC
# [9] = system: MDA-MB-468 breast
# [10] = system: M14 melanoma
# [11] = system: HL-60(TB) leukemia
# [12] = system: SK-OV-3 ovarian
# [13] = system: SF-295 CNS
# [14] = system: SF-268 CNS
# [15] = system: SNB-19 CNS
# [16] = system: TK-10 renal
# [17] = system: NCI-H23 lung
# [18] = system: HCT-116 colon
# [19] = system: 786-0 renal
# [20] = system: MDA-MB-435 melanoma
# [21] = system: SF-539 CNS
# [22] = system: A498 renal
# [23] = system: SNB-75 CNS
# [24] = system: COLO 205 colon
# [25] = system: NCI-H322M lung
# [26] = system: SR leukemia
# [27] = system: HCC-2998 colon
# [28] = system: NCI-H460 NSCLC
# [29] = system: RXF 393 renal
# [30] = system: DU-145 prostate
# [31] = system: T-47D breast
# [32] = system: SW-620 colon
# [33] = system: OVCAR-8 ovarian
# [34] = system: UACC-62 melanoma
# [35] = system: A549 NSCLC
# [36] = system: IGROV1 ovarian
# [37] = system: RPMI-8226 leukemia
# [38] = system: MCF7 breast
# [39] = system: PC-3 prostate
# [40] = system: EKVX NSCLC
# [41] = system: OVCAR-3 ovarian
# [42] = system: HOP-62 NSCLC
# [43] = system: OVCAR-4 ovarian
# [44] = system: SK-MEL-28 melanoma
# [45] = system: ACHN renal
# [46] = system: LOX IMVI melanoma
# [47] = system: NCI-H226 lung
# [48] = system: SN12C renal
# [49] = system: UO-31 renal
# [50] = system: HS 578T breast
# [51] = system: MDA-MB-231 breast
# [52] = system: MALME-3M melanoma
# [53] = system: SK-MEL-5 melanoma
# [54] = system: HT29 colon
# [55] = system: BT-549 breast
# [56] = system: CAKI-1 renal
# [57] = system: NCI/ADR-RES ovarian
compound,measurement,setting,value
COc1nc(N)nc2c1ncn2[C@@H]1O[C@H](CO)[C@@H](O)[C@@H]1O,GI50,[1],> 100 µM
same,TGI,[1],> 100 µM
same,GI50,[2],> 100 µM
same,TGI,[2],> 100 µM
same,GI50,[3],> 100 µM
same,TGI,[3],> 100 µM
same,GI50,[4],> 100 µM
same,TGI,[4],> 100 µM
same,GI50,[5],> 100 µM
same,TGI,[5],> 100 µM
same,GI50,[6],1.31 µM
same,TGI,[6],2.59 µM
same,GI50,[7],> 100 µM
same,TGI,[7],> 100 µM
same,GI50,[8],> 100 µM
same,TGI,[8],> 100 µM
same,GI50,[9],> 100 µM
same,TGI,[9],> 100 µM
same,GI50,[10],> 100 µM
same,TGI,[10],> 100 µM
same,GI50,[11],> 100 µM
same,TGI,[11],> 100 µM
same,GI50,[12],> 100 µM
same,TGI,[12],> 100 µM
same,GI50,[13],> 100 µM
same,TGI,[13],> 100 µM
same,GI50,[14],> 100 µM
same,TGI,[14],> 100 µM
same,GI50,[15],> 100 µM
same,TGI,[15],> 100 µM
same,GI50,[16],> 100 µM
same,TGI,[16],> 100 µM
same,GI50,[17],> 100 µM
same,TGI,[17],> 100 µM
same,GI50,[18],> 100 µM
same,TGI,[18],> 100 µM
same,GI50,[19],> 100 µM
same,TGI,[19],> 100 µM
same,GI50,[20],> 100 µM
same,TGI,[20],> 100 µM
same,GI50,[21],> 100 µM
same,TGI,[21],> 100 µM
same,GI50,[22],> 100 µM
same,TGI,[22],> 100 µM
same,GI50,[23],> 100 µM
same,TGI,[23],> 100 µM
same,GI50,[24],> 100 µM
same,TGI,[24],> 100 µM
same,GI50,[25],> 100 µM
same,TGI,[25],> 100 µM
same,GI50,[26],> 100 µM
same,TGI,[26],> 100 µM
same,GI50,[27],> 100 µM
same,TGI,[27],> 100 µM
same,GI50,[28],> 100 µM
same,TGI,[28],> 100 µM
same,GI50,[29],> 100 µM
same,TGI,[29],> 100 µM
same,GI50,[30],> 100 µM
same,TGI,[30],> 100 µM
same,GI50,[31],> 100 µM
same,TGI,[31],> 100 µM
same,GI50,[32],> 100 µM
same,TGI,[32],> 100 µM
same,GI50,[33],> 100 µM
same,TGI,[33],> 100 µM
same,GI50,[34],> 100 µM
same,TGI,[34],> 100 µM
same,GI50,[35],> 100 µM
same,TGI,[35],> 100 µM
same,GI50,[36],> 100 µM
same,TGI,[36],> 100 µM
same,GI50,[37],> 100 µM
same,TGI,[37],> 100 µM
same,GI50,[38],> 100 µM
same,TGI,[38],> 100 µM
same,GI50,[39],> 100 µM
same,TGI,[39],> 100 µM
same,GI50,[40],> 100 µM
same,TGI,[40],> 100 µM
same,GI50,[41],> 100 µM
same,TGI,[41],> 100 µM
same,GI50,[42],> 100 µM
same,TGI,[42],> 100 µM
same,GI50,[43],> 100 µM
same,TGI,[43],> 100 µM
same,GI50,[44],> 100 µM
same,TGI,[44],> 100 µM
same,GI50,[45],> 100 µM
same,TGI,[45],> 100 µM
same,GI50,[46],> 100 µM
same,TGI,[46],> 100 µM
same,GI50,[47],> 100 µM
same,TGI,[47],> 100 µM
same,GI50,[48],> 100 µM
same,TGI,[48],> 100 µM
same,GI50,[49],> 100 µM
same,TGI,[49],> 100 µM
same,GI50,[50],> 100 µM
same,TGI,[50],> 100 µM
same,GI50,[51],> 100 µM
same,TGI,[51],> 100 µM
same,GI50,[52],> 100 µM
same,TGI,[52],> 100 µM
same,GI50,[53],> 100 µM
same,TGI,[53],> 100 µM
same,GI50,[54],> 100 µM
same,TGI,[54],> 100 µM
same,GI50,[55],> 100 µM
same,TGI,[55],> 100 µM
same,GI50,[56],> 100 µM
same,TGI,[56],> 100 µM
same,GI50,[57],> 100 µM
same,TGI,[57],> 100 µM
